Assay [1] addresses T1, von Hippel–Lindau (VHL) (Homo sapiens, UniProt P40337).
T1 construct: with PIKfyve
Nature of the assay: VHL-dependent degradation in VCaP cells: blocked by VL285; inactive hydroxy isomer […]dN does not degrade. Format: cell-based.

In assay [2] the target is T2, PIKfyve (Homo sapiens, UniProt Q9Y2I7).
T2 construct: with VHL
The assay can be described thus: PROTAC degradation by immunoblot in VCaP cells (DC50), blocked by warhead […] and VL285; TMT proteomics. In kind it is cell-based. Background: A western blot detects proteins with antibodies after separation by electrophoresis.

T2 sequence (Q9Y2I7 2-2098): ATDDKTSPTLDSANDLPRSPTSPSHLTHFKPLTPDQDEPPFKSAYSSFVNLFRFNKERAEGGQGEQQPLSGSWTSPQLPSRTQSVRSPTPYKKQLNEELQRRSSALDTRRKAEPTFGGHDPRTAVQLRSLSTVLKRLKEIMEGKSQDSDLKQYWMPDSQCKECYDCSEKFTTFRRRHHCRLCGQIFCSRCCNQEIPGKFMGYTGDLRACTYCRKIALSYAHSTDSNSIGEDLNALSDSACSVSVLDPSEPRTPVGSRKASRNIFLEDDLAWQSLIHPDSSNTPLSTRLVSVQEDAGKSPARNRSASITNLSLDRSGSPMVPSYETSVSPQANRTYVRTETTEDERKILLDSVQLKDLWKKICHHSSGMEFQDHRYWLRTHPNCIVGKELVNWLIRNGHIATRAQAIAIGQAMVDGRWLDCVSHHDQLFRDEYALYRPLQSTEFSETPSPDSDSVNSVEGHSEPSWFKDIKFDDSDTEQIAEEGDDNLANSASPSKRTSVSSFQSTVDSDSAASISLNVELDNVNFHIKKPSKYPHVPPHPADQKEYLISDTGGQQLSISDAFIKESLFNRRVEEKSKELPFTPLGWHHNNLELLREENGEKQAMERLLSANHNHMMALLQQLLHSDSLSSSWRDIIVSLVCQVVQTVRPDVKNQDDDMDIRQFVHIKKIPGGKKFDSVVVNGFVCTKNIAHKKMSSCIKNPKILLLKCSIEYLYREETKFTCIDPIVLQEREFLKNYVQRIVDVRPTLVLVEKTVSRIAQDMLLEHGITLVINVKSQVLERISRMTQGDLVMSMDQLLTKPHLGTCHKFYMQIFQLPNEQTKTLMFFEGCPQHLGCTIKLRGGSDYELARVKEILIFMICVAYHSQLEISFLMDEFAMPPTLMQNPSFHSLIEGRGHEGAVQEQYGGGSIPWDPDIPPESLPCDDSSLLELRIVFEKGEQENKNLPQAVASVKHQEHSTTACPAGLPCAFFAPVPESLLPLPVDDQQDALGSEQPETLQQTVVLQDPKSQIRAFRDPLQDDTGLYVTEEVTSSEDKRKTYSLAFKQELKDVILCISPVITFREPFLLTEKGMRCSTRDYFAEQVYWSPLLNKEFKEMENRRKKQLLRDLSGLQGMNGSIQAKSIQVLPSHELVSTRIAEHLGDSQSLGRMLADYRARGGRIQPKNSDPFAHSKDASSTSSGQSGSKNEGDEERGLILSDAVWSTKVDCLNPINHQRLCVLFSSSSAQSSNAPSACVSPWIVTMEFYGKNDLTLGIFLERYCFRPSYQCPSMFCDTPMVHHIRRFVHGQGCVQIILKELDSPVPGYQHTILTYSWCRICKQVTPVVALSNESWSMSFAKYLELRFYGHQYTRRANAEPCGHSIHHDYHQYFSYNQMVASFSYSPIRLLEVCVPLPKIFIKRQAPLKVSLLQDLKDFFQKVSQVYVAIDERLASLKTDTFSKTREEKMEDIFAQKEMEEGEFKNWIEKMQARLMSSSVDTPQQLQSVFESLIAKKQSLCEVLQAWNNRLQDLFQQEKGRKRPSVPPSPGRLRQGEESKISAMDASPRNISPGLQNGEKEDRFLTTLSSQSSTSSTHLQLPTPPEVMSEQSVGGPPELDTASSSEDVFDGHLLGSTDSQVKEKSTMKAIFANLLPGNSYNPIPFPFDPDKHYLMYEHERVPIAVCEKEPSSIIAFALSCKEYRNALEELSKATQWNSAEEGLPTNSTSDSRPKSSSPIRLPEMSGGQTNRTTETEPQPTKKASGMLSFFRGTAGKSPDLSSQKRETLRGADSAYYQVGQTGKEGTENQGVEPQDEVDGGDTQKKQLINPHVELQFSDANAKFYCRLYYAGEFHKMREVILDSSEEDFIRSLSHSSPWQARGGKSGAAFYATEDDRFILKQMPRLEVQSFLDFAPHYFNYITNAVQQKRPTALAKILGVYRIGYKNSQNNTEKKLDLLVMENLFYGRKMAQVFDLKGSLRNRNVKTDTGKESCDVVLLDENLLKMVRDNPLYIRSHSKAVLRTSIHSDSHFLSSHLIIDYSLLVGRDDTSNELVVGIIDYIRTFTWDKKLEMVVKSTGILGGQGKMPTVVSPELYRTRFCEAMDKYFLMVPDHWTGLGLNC
T1 sequence (P40337 whole entry): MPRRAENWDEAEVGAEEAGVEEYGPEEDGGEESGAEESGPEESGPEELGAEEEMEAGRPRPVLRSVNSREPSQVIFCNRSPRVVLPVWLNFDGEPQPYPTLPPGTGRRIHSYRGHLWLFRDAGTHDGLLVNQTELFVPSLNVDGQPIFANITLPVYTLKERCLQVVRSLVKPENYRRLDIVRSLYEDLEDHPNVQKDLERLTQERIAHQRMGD
T1 sequence (Q9Y2I7 2-2098 partner): as the sequence (Q9Y2I7 2-2098) above

The term DC50 denotes the midpoint of the concentration-degradation curve. In the case of `Cc1cccc(/C=N/Nc2cc(N3CCOCC3)nc(OCCc3ccc(NC(=O)CCCCC(=O)N[C@H](C(=O)N4C[C@H](O)C[C@H]4C(=O)NCc4ccc(-c5scnc5C)cc4)C(C)(C)C)cc3)n2)c1` [12d, N^1-((S)-1-((2S,4R)-4-Hydroxy-2-((4-(4-methylthiazol-5-yl)benzyl)carbamoyl)pyrrolidin-1-yl)-3,3-dimethyl-1-oxobutan-2-yl)-N^6-(4-(2-((4-(2-((E)-3-methylbenzylidene)hydrazineyl)-6-morpholinopyrimidin-2-yl)oxy)ethyl)phenyl)adipamide], in assay [1], the “VHL-dependent degradation in VCaP cells: blocked by VL285; inactive hydroxy isom” value was “PIK5-12d induced PIKfyve degradation in a VHL- and proteasome-dependent manner”. The molecule further returned a DC50 in assay [2] of 1.48 nM.

For the origin of these results see article PMC10510382, “Discovery of a First-in-Class Degrader for the Lipid Kinase PIKfyve” (Journal of Medicinal Chemistry, 2023).
